The structures appear in SMILES notation. Read-outs that look alike come from different tables or passages of the source.

One may read the IC50 as the midpoint of a concentration-inhibition curve.

In one experiment the target is T1, PKMYT1 (Homo sapiens, UniProt Q99640).
T1 construct: PKMYT1 (93 kD, full length, N-terminal GST tag from Signal Chem); GST (N); purchased Signal Chem
T1 sequence (Q99640 1-499): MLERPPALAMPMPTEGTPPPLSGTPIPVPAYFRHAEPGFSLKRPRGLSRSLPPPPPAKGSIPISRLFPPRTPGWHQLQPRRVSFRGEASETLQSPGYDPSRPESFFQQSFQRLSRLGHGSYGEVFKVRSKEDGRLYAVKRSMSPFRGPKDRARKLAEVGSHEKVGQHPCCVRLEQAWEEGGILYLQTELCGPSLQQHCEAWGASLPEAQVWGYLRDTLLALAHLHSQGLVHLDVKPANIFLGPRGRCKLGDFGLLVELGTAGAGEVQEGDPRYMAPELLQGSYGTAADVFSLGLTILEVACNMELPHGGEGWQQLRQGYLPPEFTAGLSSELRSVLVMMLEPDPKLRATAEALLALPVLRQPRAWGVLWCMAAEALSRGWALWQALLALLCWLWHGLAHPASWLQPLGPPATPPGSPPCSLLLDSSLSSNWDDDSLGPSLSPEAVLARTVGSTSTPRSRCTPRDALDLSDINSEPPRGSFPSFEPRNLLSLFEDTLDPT
Briefly: ADP-Glo PKMYT1 ATP-depletion assay. Conditions: 50 nM PKMYT1, 13.3 nM CDK1, read-out: Biochemical IC50. On the procedure:
(§1) Biochemical IC50 values were determined via ADP-Glo™ assay. Cellular IC50 values were determined via AlphaLISA assay.
ADP-Glo™ PKMYT1 ATP-depletion assay. The activity of PKMYT1 is measured using a luciferase-luciferin based ATP detection reaction to quantify ATP depletion resulting from kinase-catalyzed phosphoryl transfer to CDK1 or autophosphorylation of PKMYT1. The ADP generated as a byproduct of the reaction is converted to ATP and used to drive a luciferase reaction. Test compounds were dissolved in DMSO and dispensed into Corning 3824 384-well plates prior to the experiment such that the final DMSO concentration was <1%. To the compounds was added 3 μL of PKMYT1 (93 kD, full length, N-terminal GST tag from Signal Chem). The reaction was started by the addition of 2 μL of CDK1 (58 kDa, full length, N-terminal GST tag from Signal Chem) and ATP in assay buffer (50 mM Hepes, 40 mM NaCl, 10 mM MgCl2, 1 mM DTT, 0.1 mg/mL BSA, 2.5 mM MnCl2). Final assay concentrations were 50 nM PKMYT1, 13.3 nM CDK1, and 88 µM ATP. Plates were centrifuged for 1 minute at 1000 RPM and incubated at RT for 120 minutes. After the incubation period, ADP-Glo™ reagent was added and the plates were incubated for another 40 minutes before finally adding the kinase detection reagent. 30 minutes after the addition, plates were placed on a PHERAstar® plate reader and read using the Luminescence Protocol, integration time at 0.5 seconds.
(In ADP-Glo the light output rises with the ADP produced.)

Experiment [1] deals with phosphorylation of CDK1 at Thr14 in HCC1806 cells. Briefly: Cell lysate AlphaLISA assay measuring inhibition of phosphorylation of CDK1 Thr14. The class given is cell-based. Particulars: read-out: Cellular IC50. Here is the method: as §1
Cell lysate AlphaLISA® assay measuring inhibition of phosphorylation of CDK1 Thr14. Inhibition of phosphorylation of CDK1 at Thr14 was determined using AlphaLISA® SureFire® Ultra™ Kit from Perkin Elmer (ALSU-PCDK1-A10K). HCC1806 cells were seeded at 2K cells per well (50 μl/well) in 384-well plates (Corning 3570) and stored overnight at 37° C. and 5% CO2. The following day, the compounds dissolved in DMSO were introduced to the cells and incubated for 4 hours at 37° C. and 5% CO2. The cells were then washed with PBS using Blue®Washer and 10 μl of lysis buffer containing protease inhibitor was added. The plate was placed on an orbital shaker (at 4° C.) for 30 minutes and stored overnight at −80° C. for complete lysing. The next day, the plates were thawed at room temperature for at least 30 min. Reagents were prepared in a dimmed light setting (<100 lumens). The assay was run by first adding 5 μl of the acceptor mix (reaction buffer 1: reaction buffer 2: activation buffer: acceptor beads 47:47:4:2), covering the plate with foil, shaking for 2 minutes and incubating at RT for 60 minutes. The donor mix (dilution buffer: donor beads 47:3) was then added at 5 μl per well, placed on the shaker for 2 minutes and incubated at RT for 60 minutes before reading the plates on a PHERAstar® plate reader. The results were normalized to DMSO (0% Inhibition) and 3 μM of reference compound.
On the technique in general: In Alpha technology, singlet oxygen from a donor bead excites a nearby acceptor bead.

Take `NC(=O)c1nc2cccnc2c(-c2c(F)ccc3[nH]ncc23)c1N` (atropisomer, axis not shown) [Compound 245]: the IC50 (at PKMYT1; in experiment [1] (4 hours)) was no less than 5 µM in each case.

On to `Cc1c(O)cccc1-c1c(N)c(C(N)=O)nc2cccc(S(C)(=O)=O)c12` [Compound 319], for which the IC50 fell in the range of 0.05 to 0.5 µM on PKMYT1 and 0.5 to 1 µM in experiment [1] (Homo sapiens, HCC1806, 4 h).

Consider `Cc1c(O)cccc1-c1c(N)c(C(N)=O)cc2nccc(C#N)c12` [Compound 241], for which the concentration for half-maximal inhibition (IC50) at PKMYT1 is less than 0.05 µM; in experiment [1] (Homo sapiens, HCC1806, 4 h), less than 0.05 µM.

Turning to `Cc1c(O)cc(Cl)cc1-c1c(N)c(C(N)=O)nc2cccnc12` [Compound 248], the IC50 at PKMYT1 was in the range of 0.05 to 0.5 µM; in experiment [1] (4 hours), 1 to 5 µM.

Consider `Cc1ccc2[nH]ncc2c1-c1c(N)c(C(N)=O)nc2ccccc12` [Compound 17, 3-Amino-4-(5-methyl-1H-indazol-4-yl)quinoline-2-carboxamide], for which the IC50 on PKMYT1 was 0.5 to 1 µM; in experiment [1] (Homo sapiens, HCC1806, 4 h), no less than 5 µM.

Consider `Cc1c(-c2c(N)c(C(N)=O)cc3nccnc23)ccnc1O` [Compound 159], for which the IC50 was no less than 5 µM at PKMYT1 and no less than 5 µM in experiment [1] (Homo sapiens, HCC1806, 4 h).

As to `Cc1ccc2c(-c3cccc(O)c3C)c(N)c(C(N)=O)nc2c1` (single isomer, unassigned) [Compound 49, (M)-3-Amino-4-(3-hydroxy-2-methylphenyl)-7-methylquinoline-2-carboxamide], the IC50 fell in the range of 0.5 to 1 µM on PKMYT1 and 1 to 5 µM in experiment [1] (4 hours).

Consider `Cc1c(O)cccc1-c1c(N)c(C(N)=O)cc2ncccc12` [Compound 67, 6-Amino-5-(3-hydroxy-2-methylphenyl)quinoline-7-carboxamide], for which the half-inhibitory concentration (IC50) lay within 0.05 to 0.5 µM on PKMYT1 and 1 to 5 µM in experiment [1] (4 hours).

As for `Cc1c(-c2c(N)c(C(N)=O)cc3nccnc23)ccc(F)c1O` (atropisomer, axis not shown) [Compound 295], the IC50 at PKMYT1 is less than 0.05 µM; in experiment [1] (4 hours), 0.05 to 0.5 µM.

On to `Cc1c(O)cccc1-c1c(N)c(C(N)=O)cc2ncc(C(F)(F)F)nc12` [Compound 139], for which the values for the IC50 (at PKMYT1; in experiment [1] (4 hours)) were less than 0.05 µM and 0.05 to 0.5 µM, respectively.

As to `COc1nc2c(-c3cccc(O)c3C)c(N)c(C(N)=O)cc2nc1C` [Compound 173], the IC50 (on PKMYT1; in experiment [1] (4 hours)) was 0.05 to 0.5 µM in each case.

With `Cc1ccc2[nH]ncc2c1-c1c(N)c(C(N)=O)nc2cccnc12` [Compound 6, 3-amino-4-(5-methyl-1H-indazol-4-yl)-1,5-naphthyridine-2-carboxamide], the IC50 lay within 0.05 to 0.5 µM on PKMYT1 and 1 to 5 µM in experiment [1] (Homo sapiens, HCC1806, 4 h).

Turning to `COc1nc2c(-c3cccc(O)c3C)c(N)c(C(N)=O)cc2nc1C` (atropisomer, axis not shown) [Compound 224], the results for the IC50 (on PKMYT1; in experiment [1] (4 hours)) were 1 to 5 µM and no less than 5 µM, respectively.

With `Cc1ccc(O)c(C)c1-c1c(N)c(C(N)=O)nc2nccnc12` (single isomer, unassigned) [Compound 128, (M)-7-Amino-8-(3-hydroxy-2,6-dimethylphenyl)pyrido[2,3-b]pyrazine-6-carboxamide], the values for the IC50 (at PKMYT1; in experiment [1] (4 hours)) were 1 to 5 µM and no less than 5 µM, respectively.

With `NC(=O)c1nc2c(c(-c3cc(O)cnc3F)c1N)NCCC2` (atropisomer, axis not shown) [Compound 296], the IC50 (on PKMYT1; in experiment [1] (4 hours)) was no less than 5 µM each time.

For `Cc1n[nH]c2cccc(-c3c(N)c(C(N)=O)cc4nccnc34)c12` (single isomer, unassigned) [Compound 118, (M)-7-Amino-8-(3-methyl-1H-indazol-4-yl)quinoxaline-6-carboxamide], the figures for the IC50 (on PKMYT1; in experiment [1] (4 hours)) were 0.05 to 0.5 µM and 1 to 5 µM, respectively.

As to `NC(=O)c1nc2cccnc2c(-c2cccc3[nH]nc(F)c23)c1N` [Compound 306], the IC50 at PKMYT1 is 0.05 to 0.5 µM; in experiment [1] (4 hours) it was no less than 5 µM.

As to `Cc1cnc2c(-c3cccc(O)c3C)c(N)c(C(N)=O)cc2n1` (atropisomer, axis not shown) [Compound 209], the IC50 at PKMYT1 was less than 0.05 µM; in experiment [1] (4 hours), 0.05 to 0.5 µM.

With `Cc1c(O)cncc1-c1c(N)c(C(N)=O)cc2nccnc12` [Compound 113, 7-amino-8-(5-hydroxy-4-methylpyridin-3-yl)quinoxaline-6-carboxamide], the IC50 at PKMYT1 was 0.05 to 0.5 µM; in experiment [1] (Homo sapiens, HCC1806, 4 h) it was 1 to 5 µM.

`Cc1c(O)cccc1-c1c(N)c(C(N)=O)cc2nc(C(F)(F)F)cnc12` (atropisomer, axis not shown; (P)) [Compound 100, (P)-7-Amino-8-(3-hydroxy-2-methylphenyl)-3-(trifluoromethyl)quinoxaline-6-carboxamide]: the IC50 (on PKMYT1; in experiment [1] (4 hours)) was 0.05 to 0.5 µM in each case.

For `NC(=O)c1nc2cccnc2c(-c2c(F)ccc3[nH]ncc23)c1N` [Compound 220], the IC50 fell in the range of 0.05 to 0.5 µM at PKMYT1 and 1 to 5 µM in experiment [1] (4 hours).

Consider `CC1=C(c2c(N)c(C(N)=O)nc3cccnc23)CCC[C@H]1O` [Compound 309], for which the IC50 was no less than 5 µM on PKMYT1 and no less than 5 µM in experiment [1] (Homo sapiens, HCC1806, 4 h).

Regarding `NC(=O)c1nc2cccnc2c(-c2ccc3c[nH]nc3c2)c1N` [Compound 204], the IC50 on PKMYT1 was 1 to 5 µM; in experiment [1] (Homo sapiens, HCC1806, 4 h), no less than 5 µM.

Regarding `Cc1c(O)cccc1-c1c(N)c(C(N)=O)nc2cccc(F)c12` (single isomer, unassigned) [Compound 57, (P)-3-Amino-5-fluoro-4-(3-hydroxy-2-methylphenyl)quinoline-2-carboxamide], the half-inhibitory concentration (IC50) on PKMYT1 is less than 0.05 µM; in experiment [1] (4 hours), 0.05 to 0.5 µM.

For `Cc1cnc2cc(C(N)=O)c(N)c(-c3cccc(O)c3C)c2n1` (atropisomer, axis not shown) [Compound 168], the IC50 on PKMYT1 is less than 0.05 µM; in experiment [1] (4 hours), 0.05 to 0.5 µM.

Regarding `Cc1ccc2nc(C(N)=O)c(N)c(-c3cccc(O)c3C)c2c1` [Compound 55, 3-Amino-4-(3-hydroxy-2-methylphenyl)-6-methylquinoline-2-carboxamide], the IC50 at PKMYT1 lay within 0.05 to 0.5 µM; in experiment [1] (Homo sapiens, HCC1806, 4 h), 1 to 5 µM.

With `Cc1cc(O)cc(C)c1-c1cc(C(N)=O)cc2nccnc12` [Compound 131], the IC50 is no less than 5 µM on PKMYT1 and no less than 5 µM in experiment [1] (Homo sapiens, HCC1806, 4 h).

As for `Cc1ccc2[nH]ncc2c1-c1c(N)c(C(N)=O)nc2cccnc12` (single isomer, unassigned) [Compound 8, (M)-3-amino-4-(5-methyl-1H-indazol-4-yl)-1,5-naphthyridine-2-carboxamide], the IC50 (at PKMYT1; in experiment [1] (4 hours)) was no less than 5 µM in each case.

With `Cc1ccc(O)c(C)c1-c1c(N)c(C(N)=O)cc2cccnc12` (single isomer, unassigned) [Compound 65, (M)-7-Amino-8-(3-hydroxy-2,6-dimethyl-phenyl)quinoline-6-carboxamide], the IC50 was 0.5 to 1 µM at PKMYT1 and no less than 5 µM in experiment [1] (4 hours).

Consider `Cc1ccc(O)c(C)c1-c1c(N)c(C(N)=O)nc2c(F)cccc12` [Compound 25], for which the IC50 on PKMYT1 fell in the range of 0.05 to 0.5 µM; in experiment [1] (Homo sapiens, HCC1806, 4 h) it was 1 to 5 µM.

As to `NC(=O)c1cc(-c2cccc3[nH]ncc23)c2nccnc2c1` [Compound 75, 8-(1H-indazol-4-yl)quinoxaline-6-carboxamide], the IC50 on PKMYT1 is no less than 5 µM; in experiment [1] (Homo sapiens, HCC1806, 4 h), no less than 5 µM.

For the molecule `COc1cncc(C2=c3ncccc3=NC(C(N)=O)C2N)c1C` (stereo not shown) [Compound 186], the IC50 at PKMYT1 was 0.05 to 0.5 µM; in experiment [1] (Homo sapiens, HCC1806, 4 h), 0.5 to 1 µM.
